Assay results reported in ChEMBL document CHEMBL1201862, “PubChem BioAssay data set” (2004).
Several values for one entry are separate records, joined by “and”; a condition that tells them apart may be missing. Equal values may be shown once.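 Protocol summary: plate cells (96-well), add compound at 5 concentrations, incubate 48 h, interpolate endpoints linearly. The concentration for 50% growth inhibition is given as GI50.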 Activity calls are given as the source filed them. No stated cut-off is given here; in the data, active = GI50 up to about 1.1 µM and inactive = higher. Non-standard residues stand in square brackets, D forms with d. Residues, ends and D or L forms follow the SMILES beside them. *: point of attachment. X30 = COC1=CC(=O)N(C(=O)[C@@H](O*)C(C)C)[C@H]1Cc1ccccc1; NMeL = CN[C@@H](CC(C)C)C(=O)O; Cbz = O=C(OCc1ccccc1)*

Columns and labels:
Assay in all cases: inhibition of tumour cell growth, NCI panel, 48 h
786-0 = test system: 786-0
A549 = test system: A549
ACHN = test system: ACHN
COLO 205 = test system: COLO 205
DU-145 = test system: DU-145
EKVX = test system: EKVX
HCT-15 = test system: HCT-15
HT-29 = test system: HT-29
IGROV-1 = test system: IGROV-1
NCI-H460 = test system: NCI-H460
SF-295 = test system: SF-295
SK-MEL-28 = test system: SK-MEL-28
SK-MEL-5 = test system: SK-MEL-5
TK-10 = test system: TK-10
UO-31 = test system: UO-31
CAKI-1 = test system: CAKI-1
HL-60 = test system: HL-60
SR = test system: SR
Malme-3M = test system: Malme-3M

| Structure (SMILES) | GI50 (786-0) | GI50 (A549) | GI50 (ACHN) | GI50 (COLO 205) | GI50 (DU-145) | GI50 (EKVX) | GI50 (HCT-15) [µM] | GI50 (HT-29) | GI50 (IGROV-1) | GI50 (NCI-H460) | GI50 (SF-295) | GI50 (SK-MEL-28) | GI50 (SK-MEL-5) | GI50 (TK-10) | GI50 (UO-31) | GI50 (CAKI-1) | GI50 (HL-60) | GI50 (SR) | GI50 (Malme-3M) |
| --- | --- | --- | --- | --- | --- | --- | --- | --- | --- | --- | --- | --- | --- | --- | --- | --- | --- | --- | --- |
| O=C(Cc1ccccc1)NN1C(=O)/C(=C\c2ccccc2O)S/C1=N\c1ccccc1 | > 100 µM (inactive) | > 100 µM (inactive) | > 100 µM (inactive) | > 100 µM (inactive) | > 100 µM (inactive) | > 100 µM (inactive) | > 100 | > 100 µM (inactive) | > 100 µM (inactive) | > 100 µM (inactive) | > 100 µM (inactive) | > 100 µM (inactive) | > 100 µM (inactive) | > 100 µM (inactive) | > 100 µM (inactive) |  |  |  |  |
| O=C(OCc1ccccc1)N(CCCCN(CCCNC(=O)C(F)(F)F)C(=O)OCc1ccccc1)CCCNC(=O)C(F)(F)F | > 100 µM (inactive) | > 66.8 µM (inactive) | 23.9 µM (inactive) | > 88.1 µM (inactive) | > 100 µM (inactive) | > 100 µM (inactive) | > 100 | > 28.4 µM (inactive) | > 100 µM (inactive) | > 83.6 µM (inactive) | > 100 µM (inactive) | > 100 µM (inactive) | > 36.8 µM (inactive) | > 100 µM (inactive) | 3.56 µM (inactive) | 1.56 µM (inactive) | > 100 µM (inactive) | > 100 µM (inactive) |  |
| O=C(O)CCC(NC(=O)c1ccc(Nc2nc3ccc(C(F)(F)F)cc3nc2C(=O)O)cc1)C(=O)O (stereo not drawn) | > 100 µM (inactive) | > 100 µM (inactive) | > 100 µM (inactive) | > 100 µM (inactive) | > 100 µM (inactive) | > 100 µM (inactive) | > 100 | > 100 µM (inactive) | > 100 µM (inactive) |  | > 100 µM (inactive) |  | > 100 µM (inactive) | > 100 µM (inactive) | > 100 µM (inactive) |  | > 100 µM (inactive) | > 100 µM (inactive) |  |
| C[C@H](NC(=O)C(Cc1ccccc1)(Cc1ccc(O)cn1)NC(=O)c1ccccc1)c1ccccc1 (stereo partly drawn) | 16.7 µM (inactive) | 14.3 µM (inactive) | 18.9 µM (inactive) | 19.1 µM (inactive) | 18.6 µM (inactive) | 14.7 µM (inactive) | 18 | 17.5 µM (inactive) | 16.3 µM (inactive) |  | 14.6 µM (inactive) | 18.5 µM (inactive) | 19.4 µM (inactive) | 29.9 µM (inactive) | 14.8 µM (inactive) | 26.9 µM (inactive) | 25.1 µM (inactive) |  | 17.5 µM (inactive) |
| CC(=O)C1C(=O)C(=O)N(CCN2C(=O)C(=O)C(C(C)=O)C2=O)C1=O (stereo not drawn) | > 100 µM (inactive) |  | > 100 µM (inactive) | > 100 µM (inactive) |  | > 100 µM (inactive) | > 100 | > 100 µM (inactive) | > 100 µM (inactive) | > 100 µM (inactive) | > 100 µM (inactive) | > 100 µM (inactive) | > 100 µM (inactive) | > 100 µM (inactive) | > 100 µM (inactive) | > 100 µM (inactive) |  |  | > 100 µM (inactive) |
| COc1nc2c(c(=O)[nH]1)N=C(c1ccc(Cl)cc1)CC(c1ccccc1)N2 (stereo not drawn) | 37.6 µM (inactive) | 33.4 µM (inactive) | 23.1 µM (inactive) | 38.8 µM (inactive) | 40.6 µM (inactive) | 29.6 µM (inactive) | 24.2 | 34.5 µM (inactive) | 31.9 µM (inactive) | 27.1 µM (inactive) | 23.1 µM (inactive) | 17.7 µM (inactive) | 17.6 µM (inactive) |  | 29.6 µM (inactive) | 28.2 µM (inactive) |  | 61.4 µM (inactive) |  |
| O=C(O/C=C\OC1CCCC1(c1ccccc1)c1ccccc1)c1ccccc1 (stereo not drawn) | 4.03 µM (inactive) | 21.4 µM (inactive) | 4.1 µM (inactive) | 15.6 µM (inactive) | 3.02 µM (inactive) | 17.5 µM (inactive) | 2.23 | 3.44 µM (inactive) | 2.6 µM (inactive) | 25.9 µM (inactive) | 19.2 µM (inactive) | 5.71 µM (inactive) | 10.8 µM (inactive) | 5.01 µM (inactive) | 1.87 µM (inactive) | > 46.1 µM (inactive) | 1.84 µM (inactive) | 2.17 µM (inactive) |  |
| CCCCSC1=N/C(=C\c2ccc(N(C)C)cc2)C(NN)=N1 | > 100 µM (inactive) | > 100 µM (inactive) | > 100 µM (inactive) |  | > 100 µM (inactive) | > 100 µM (inactive) | > 100 | > 100 µM (inactive) | > 100 µM (inactive) | > 100 µM (inactive) | > 100 µM (inactive) | > 100 µM (inactive) |  | > 100 µM (inactive) |  | > 100 µM (inactive) | > 100 µM (inactive) |  | > 100 µM (inactive) |
| C/C(=N\NC(=S)N1CC2CCC(CC2)C1)c1cccc(C)n1 | 1.08 µM (active) | 0.9 µM (active) | 0.59 µM (active) | 0.01 µM (active) | 0.617 µM (active) | 0.488 µM (active) | 0.537 | 0.01 µM (active) | 0.815 µM (active) | 0.248 µM (active) | 0.445 µM (active) | 2.94 µM (inactive) | 1.96 µM (inactive) | 2.54 µM (inactive) | 0.505 µM (active) | 1.11 µM (active) | 0.01 µM (active) |  | 2.11 µM (inactive) |
| CC(C)NC(=O)N(Nc1ccccc1)C(C)(C)C | > 100 µM (inactive) | > 100 µM (inactive) | > 100 µM (inactive) | > 100 µM (inactive) |  | > 100 µM (inactive) | > 100 | > 100 µM (inactive) | > 100 µM (inactive) | > 100 µM (inactive) | > 100 µM (inactive) | > 100 µM (inactive) | > 100 µM (inactive) | > 100 µM (inactive) | 96.2 µM (inactive) | > 100 µM (inactive) | 37.2 µM (inactive) | > 100 µM (inactive) | > 100 µM (inactive) |
| COC1=CC(=O)N(C(=O)[C@@H](OC(=O)[C@@H]2CCCN2C(=O)[C@@H]2CCCN2C(=O)[C@H](CC(C)C)N(C)C(=O)[C@@H](NC(=O)[C@@H](NC(=O)OCc2ccccc2)C(C)C)C(C)C)C(C)C)[C@H]1Cc1ccccc1 (Cbz-VV[NMeL]PP-X30) | 23.3 µM (inactive) | 76.7 µM (inactive) | > 100 µM (inactive) | > 100 µM (inactive) | > 100 µM (inactive) | > 100 µM (inactive) | > 100 | > 100 µM (inactive) | 79.1 µM (inactive) | 52.7 µM (inactive) | 20.3 µM (inactive) | > 100 µM (inactive) |  | 64.7 µM (inactive) | > 100 µM (inactive) | > 100 µM (inactive) | > 100 µM (inactive) |  | > 100 µM (inactive) |
| NCCCCN(CCCN)C(=O)c1ccccc1 | > 100 µM (inactive) | > 100 µM (inactive) | > 100 µM (inactive) | > 100 µM (inactive) | > 100 µM (inactive) | > 100 µM (inactive) | > 100 | > 100 µM (inactive) | > 100 µM (inactive) | > 100 µM (inactive) | > 100 µM (inactive) | > 100 µM (inactive) | > 100 µM (inactive) | > 100 µM (inactive) | > 100 µM (inactive) | > 100 µM (inactive) | > 100 µM (inactive) |  |  |
| COc1cccc(/C=N/n2c(Cc3ccccc3)n[nH]c2=O)c1 | 50.1 µM (inactive) | > 100 µM (inactive) | > 100 µM (inactive) | > 100 µM (inactive) | > 100 µM (inactive) | > 72.6 µM (inactive) | > 100 | > 35.4 µM (inactive) |  | > 100 µM (inactive) | 38.5 µM (inactive) | > 100 µM (inactive) | 33.9 µM (inactive) | > 100 µM (inactive) | > 100 µM (inactive) | > 47.4 µM (inactive) |  |  | > 67.6 µM (inactive) |
| Cc1sc2ccccc2[n+]1CCC(=O)O | > 100 µM (inactive) | > 100 µM (inactive) | > 100 µM (inactive) | > 100 µM (inactive) | > 100 µM (inactive) | > 100 µM (inactive) | > 100 | > 100 µM (inactive) | > 100 µM (inactive) | > 100 µM (inactive) | > 100 µM (inactive) | > 100 µM (inactive) | > 100 µM (inactive) | > 100 µM (inactive) |  | > 100 µM (inactive) | 11.5 µM (inactive) |  | > 100 µM (inactive) |
| COc1ccccc1/N=N/c1c(O)ccc2ccccc12 | 13.8 µM (inactive) and 19.3 µM (inactive) | 32.7 µM (inactive) and 23 µM (inactive) | 13.6 µM (inactive) | 56.8 µM (inactive) and 64.7 µM (inactive) | 54.2 µM (inactive) and 98.9 µM (inactive) |  | > 63.2 | 34.6 µM (inactive) and 30.7 µM (inactive) |  | 18.9 µM (inactive) | 20 µM (inactive) and 28.5 µM (inactive) | 85.3 µM (inactive) | 22.8 µM (inactive) and 20.7 µM (inactive) | 14.6 µM (inactive) and 23.4 µM (inactive) | 17.9 µM (inactive) and > 10 µM (inactive) | 18.7 µM (inactive) and 25.6 µM (inactive) |  | 24.3 µM (inactive) |  |
| CC1=NN(c2nc(N)nc(/C(C#N)=C\C3COc4ccccc4C3=O)n2)C(C)(C)C1 (stereo not drawn) | 19.2 µM (inactive) |  | 23.6 µM (inactive) |  | 31.6 µM (inactive) | 22.5 µM (inactive) | 22.9 | 26.5 µM (inactive) | 32.7 µM (inactive) | 26.9 µM (inactive) | 31.3 µM (inactive) | 21.6 µM (inactive) | 18.7 µM (inactive) | 27.6 µM (inactive) | 18.9 µM (inactive) | 23.6 µM (inactive) | 0.0404 µM (active) | 17.6 µM (inactive) |  |
